# Test results: the supplement of paper PMC9663587
# Compound: C1=CC(=CC(=C1)N2C(=O)C=CC3=CN=C4C=CC(=CC4=C32)C5=CN=C(C=C5)N)C(F)(F)F [Torin2]
# 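Note: breast cancer and non-malignant breast epithelial cell lines, Deep Dye Drop or Dye Drop imaging, nine half-log doses, GR normalized to time-zero plates and DMSO-only controls.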
row,Cell Line,"GR50, 72 h"
1,MCF10A,0.032 µM
2,MCF12A,0.0424 µM
3,MDAMB231,0.0251 µM
4,MDAMB415,0.00771 µM
5,MDAMB436,0.0412 µM
6,MDAMB468,0.016 µM
7,PDX1258,0.0356 µM
8,PDXHCI002,0.123 µM
9,SKBR3,0.00361 µM
10,SUM52PE,0.0154 µM
11,SUM159,0.0417 µM
12,SUM229PE,0.0523 µM
13,SUM1315,0.015 µM

# Compound: C=CCn1c(=O)c2cnc(Nc3ccc(N4CCN(C)CC4)cc3)nc2n1-c1cccc(C(C)(C)O)n1 [AZD1775]
row,Cell Line,"GR50, 72 h"
1,MCF10A,6.21 µM
2,MCF12A,1.92 µM
3,MDAMB231,0.0633 µM
4,MDAMB415,1.56 µM
5,MDAMB436,0.175 µM
6,MDAMB468,0.25 µM
7,PDX1258,0.0187 µM
8,PDXHCI002,0.23 µM
9,SKBR3,0.206 µM
10,SUM52PE,4.37 µM
11,SUM159,2.05 µM
12,SUM229PE,0.00928 µM
13,SUM1315,< 0.001 µM

# Compound: CCNC(=O)c1noc(-c2cc(C(C)C)c(O)cc2O)c1-c1ccc(CN2CCOCC2)cc1 [Luminespib/NVP-AUY922]
row,Cell Line,"GR50, 72 h"
1,MCF10A,0.00762 µM
2,MCF12A,0.0103 µM
3,MDAMB231,0.0058 µM
4,MDAMB415,0.00909 µM
5,MDAMB436,0.00391 µM
6,MDAMB468,0.00483 µM
7,PDX1258,0.0101 µM
8,PDXHCI002,0.00439 µM
9,SKBR3,0.00228 µM
10,SUM52PE,0.00584 µM
11,SUM159,0.00945 µM
12,SUM229PE,0.00595 µM
13,SUM1315,0.00486 µM

# Compound: CN(C)C(=O)c1cc2cnc(Nc3ccc(N4CCNCC4)cn3)nc2n1C1CCCC1 [LEE011/Ribociclib]
row,Cell Line,"GR50, 72 h"
1,MCF10A,> 10 µM
2,MCF12A,> 10 µM
3,MDAMB231,0.995 µM
4,MDAMB415,0.00974 µM
5,MDAMB436,> 10 µM
6,MDAMB468,> 10 µM
7,PDX1258,> 10 µM
8,PDXHCI002,> 10 µM
9,SKBR3,6.14 µM
10,SUM52PE,> 10 µM
11,SUM159,9.31 µM
12,SUM229PE,> 10 µM
13,SUM1315,2.83 µM

# Compound: Nc1cc(C(F)(F)F)c(-c2cc(N3CCOCC3)nc(N3CCOCC3)n2)cn1 [Buparlisib/NVP-BKM120]
row,Cell Line,"GR50, 72 h"
1,MCF10A,1.47 µM
2,MCF12A,2.84 µM
3,MDAMB231,1.51 µM
4,MDAMB415,1.02 µM
5,MDAMB436,1.18 µM
6,MDAMB468,0.832 µM
7,PDX1258,1.36 µM
8,PDXHCI002,1.44 µM
9,SKBR3,0.14 µM
10,SUM52PE,0.738 µM
11,SUM159,2.21 µM
12,SUM229PE,1.27 µM
13,SUM1315,0.402 µM

# Compound: Cc1nc(NC(=O)N2CCC[C@H]2C(N)=O)sc1-c1ccnc(C(C)(C)C(F)(F)F)c1 [Alpelisib/BYL719]
row,Cell Line,"GR50, 72 h"
1,MCF10A,> 10 µM
2,MCF12A,> 10 µM
3,MDAMB231,> 10 µM
4,MDAMB415,> 10 µM
5,MDAMB436,> 10 µM
6,MDAMB468,> 10 µM
7,PDX1258,> 10 µM
8,PDXHCI002,> 10 µM
9,SKBR3,0.485 µM
10,SUM52PE,2.74 µM
11,SUM159,> 10 µM
12,SUM229PE,> 10 µM
13,SUM1315,6.46 µM

# Compound: CC(C)n1nc(-c2ccc3oc(N)nc3c2)c2c(N)ncnc21 [INK128/MLN0128]
row,Cell Line,"GR50, 72 h"
1,MCF10A,0.0242 µM
2,MCF12A,0.022 µM
3,MDAMB231,0.0218 µM
4,MDAMB415,0.0102 µM
5,MDAMB436,0.0241 µM
6,MDAMB468,0.0235 µM
7,PDX1258,0.044 µM
8,PDXHCI002,0.169 µM
9,SKBR3,0.00265 µM
10,SUM52PE,0.0172 µM
11,SUM159,0.0561 µM
12,SUM229PE,0.047 µM
13,SUM1315,0.00659 µM

# Compound: CC1(CCN(CC1)C2=CN=C(C(=N2)N)C3=C(C(=CC=C3)Cl)Cl)N [SHP099]
row,Cell Line,"GR50, 72 h"
1,MCF10A,> 10 µM
2,MCF12A,> 10 µM
3,MDAMB231,> 10 µM
4,MDAMB415,> 10 µM
5,MDAMB436,> 10 µM
6,MDAMB468,> 10 µM
7,PDX1258,> 10 µM
8,PDXHCI002,> 10 µM
9,SKBR3,> 10 µM
10,SUM52PE,> 10 µM
11,SUM159,> 10 µM
12,SUM229PE,> 10 µM
13,SUM1315,> 10 µM

# Compound: CN1CCN(C(=O)c2ccc3cc(CCNc4ncnc5ccc(C#N)cc45)ccc3c2)CC1 [senexin b]
row,Cell Line,"GR50, 72 h"
1,MCF10A,> 10 µM
2,MCF12A,> 10 µM
3,MDAMB231,> 10 µM
4,MDAMB415,> 10 µM
5,MDAMB436,8.65 µM
6,MDAMB468,2.04 µM
7,PDX1258,> 10 µM
8,PDXHCI002,> 10 µM
9,SKBR3,> 10 µM
10,SUM52PE,> 10 µM
11,SUM159,> 10 µM
12,SUM229PE,> 10 µM
13,SUM1315,> 10 µM

# Compound: NC(=O)Nc1cc(-c2cccc(F)c2)sc1C(=O)N[C@H]1CCCNC1 [AZD7762]
row,Cell Line,"GR50, 72 h"
1,MCF10A,1.81 µM
2,MCF12A,0.129 µM
3,MDAMB231,0.163 µM
4,MDAMB415,0.475 µM
5,MDAMB436,0.04 µM
6,MDAMB468,0.287 µM
7,PDX1258,0.0152 µM
8,PDXHCI002,0.0705 µM
9,SKBR3,0.0203 µM
10,SUM52PE,0.0752 µM
11,SUM159,0.834 µM
12,SUM229PE,0.0909 µM
13,SUM1315,0.0527 µM

# Compound: CCc1cnn2c(NCc3ccc[n+]([O-])c3)cc(N3CCCC[C@H]3CCO)nc12
row,Cell Line,"GR50, 72 h"
1,MCF10A,0.0162 µM
2,MCF12A,0.0371 µM
3,MDAMB231,0.0103 µM
4,MDAMB415,0.0203 µM
5,MDAMB436,0.0143 µM
6,MDAMB468,0.0156 µM
7,PDX1258,0.0116 µM
8,PDXHCI002,0.0122 µM
9,SKBR3,0.00682 µM
10,SUM52PE,0.0196 µM
11,SUM159,0.0169 µM
12,SUM229PE,0.0141 µM
13,SUM1315,0.0109 µM

# Compound: COc1cc2nccc(Oc3ccc(NC(=O)C4(C(=O)Nc5ccc(F)cc5)CC4)cc3)c2cc1OC [Cabozantinib]
row,Cell Line,"GR50, 72 h"
1,MCF10A,> 10 µM
2,MCF12A,> 10 µM
3,MDAMB231,4.83 µM
4,MDAMB415,6.41 µM
5,MDAMB436,6.5 µM
6,MDAMB468,8.97 µM
7,PDX1258,8.59 µM
8,PDXHCI002,7.21 µM
9,SKBR3,9.69 µM
10,SUM52PE,0.736 µM
11,SUM159,7.15 µM
12,SUM229PE,6.79 µM
13,SUM1315,4.52 µM

# Compound: Cc1nc(Nc2ncc(C(=O)Nc3c(C)cccc3Cl)s2)cc(N2CCN(CCO)CC2)n1 [Dasatinib]
row,Cell Line,"GR50, 72 h"
1,MCF10A,0.709 µM
2,MCF12A,0.209 µM
3,MDAMB231,0.0294 µM
4,MDAMB415,0.236 µM
5,MDAMB436,> 10 µM
6,MDAMB468,4.41 µM
7,PDX1258,0.0216 µM
8,PDXHCI002,0.509 µM
9,SKBR3,3.65 µM
10,SUM52PE,0.238 µM
11,SUM159,> 10 µM
12,SUM229PE,0.094 µM
13,SUM1315,0.0191 µM

# Compound: Cc1nn(C)c(COc2ccc(N3CCN(S(=O)(=O)N(C)C)CC3)cc2)c1-c1cccc2c(CCCOc3cccc4ccccc34)c(C(=O)O)n(CCN3CCOCC3)c12
row,Cell Line,"GR50, 72 h"
1,MCF10A,> 10 µM
2,MCF12A,> 10 µM
3,MDAMB231,> 10 µM
4,MDAMB415,> 10 µM
5,MDAMB436,> 10 µM
6,MDAMB468,> 10 µM
7,PDX1258,> 10 µM
8,PDXHCI002,> 10 µM
9,SKBR3,> 10 µM
10,SUM52PE,8.59 µM
11,SUM159,> 10 µM
12,SUM229PE,> 10 µM
13,SUM1315,> 10 µM

# Compound: CN(C)C/C=C/C(=O)Nc1ccc(C(=O)N2CCC[C@@H](Nc3ncc(Cl)c(-c4c[nH]c5ccccc45)n3)C2)cc1 [THZ531]
row,Cell Line,"GR50, 72 h"
1,MCF10A,0.358 µM
2,MCF12A,0.632 µM
3,MDAMB231,0.245 µM
4,MDAMB415,0.0474 µM
5,MDAMB436,0.19 µM
6,MDAMB468,0.0412 µM
7,PDX1258,0.0492 µM
8,PDXHCI002,0.0493 µM
9,SKBR3,0.0273 µM
10,SUM52PE,0.149 µM
11,SUM159,> 1 µM
12,SUM229PE,0.314 µM
13,SUM1315,0.388 µM

# Compound: CC(=O)c1c(C)c2cnc(Nc3ccc(N4CCNCC4)cn3)nc2n(C2CCCC2)c1=O
row,Cell Line,"GR50, 72 h"
1,MCF10A,1.95 µM
2,MCF12A,> 3.16 µM
3,MDAMB231,0.109 µM
4,MDAMB415,0.0304 µM
5,MDAMB436,> 3.16 µM
6,MDAMB468,> 3.16 µM
7,PDX1258,> 3.16 µM
8,PDXHCI002,0.127 µM
9,SKBR3,0.176 µM
10,SUM52PE,0.564 µM
11,SUM159,1.73 µM
12,SUM229PE,0.956 µM
13,SUM1315,0.0923 µM

# Compound: C1=CC2=C(C=CC(=C2)C=C3C(=O)NC(=NCC4=CC=CS4)S3)N=C1 [R0-3306]
row,Cell Line,"GR50, 72 h"
1,MCF10A,5.9 µM
2,MCF12A,9.7 µM
3,MDAMB231,8.73 µM
4,MDAMB415,> 10 µM
5,MDAMB436,4.65 µM
6,MDAMB468,4.57 µM
7,PDX1258,5.5 µM
8,PDXHCI002,6.43 µM
9,SKBR3,4.77 µM
10,SUM52PE,5.05 µM
11,SUM159,7.13 µM
12,SUM229PE,6.23 µM
13,SUM1315,2.79 µM
